From ChEMBL document CHEMBL3585344, “Thiazole-based aminopyrimidines and N-phenylpyrazolines as potent antimicrobial agents: synthesis and biological evaluation” (2014)
Converted amounts (≈) assume the structure as drawn.

Key:
Escherichia coli [1] = assay: Bactericidal activity against Escherichia coli ATCC 35210 after 72 hrs by microdilution method; assay type: functional
Staphylococcus aureus [2] = assay: Antibacterial activity against Staphylococcus aureus ATCC 6538 after 24 hrs by microdilution method; assay type: functional; settings: ATCC 6538, 24 h
Aspergillus ochraceus [3] = assay: Antifungal activity against Aspergillus ochraceus ATCC 12066 after 72 hrs by microdilution method; assay type: functional; settings: ATCC 12066, 72 h
Aspergillus flavus [4] = assay: Fungicidal activity against Aspergillus flavus ATCC 9643 after 72 hrs by microdilution method; assay type: functional
Listeria monocytogenes [5] = assay: Bactericidal activity against Listeria monocytogenes NCTC 7973 after 72 hrs by microdilution method; assay type: functional
Penicillium ochrochloron [6] = assay: Antifungal activity against Penicillium ochrochloron ATCC 9112 after 72 hrs by microdilution method; assay type: functional; settings: ATCC 9112, 72 h
Penicillium ochrochloron [7] = assay: Fungicidal activity against Penicillium ochrochloron ATCC 9112 after 72 hrs by microdilution method; assay type: functional
Aspergillus niger [8] = assay: Antifungal activity against Aspergillus niger ATCC 6275 after 72 hrs by microdilution method; assay type: functional; settings: ATCC 6275, 72 h
Aspergillus niger [9] = assay: Fungicidal activity against Aspergillus niger ATCC 6275 after 72 hrs by microdilution method; assay type: functional
Micrococcus flavus [10] = assay: Bactericidal activity against Micrococcus flavus ATCC 10240 after 72 hrs by microdilution method; assay type: functional
Enterococcus faecalis [11] = assay: Antibacterial activity against Enterococcus faecalis ATCC 7080 isolated from human after 24 hrs by microdilution method; assay type: functional; settings: ATCC 7080, 24 h
Escherichia coli [12] = assay: Antibacterial activity against Escherichia coli ATCC 35210 after 24 hrs by microdilution method; assay type: functional; settings: ATCC 35210, 24 h
Enterococcus faecalis [13] = assay: Bactericidal activity against Enterococcus faecalis ATCC 7080 isolated from human after 72 hrs by microdilution method; assay type: functional
Aspergillus flavus [14] = assay: Antifungal activity against Aspergillus flavus ATCC 9643 after 72 hrs by microdilution method; assay type: functional; settings: ATCC 9643, 72 h
Aspergillus versicolor [15] = assay: Antifungal activity against Aspergillus versicolor ATCC 11730 after 72 hrs by microdilution method; assay type: functional; settings: ATCC 11730, 72 h
Aspergillus ochraceus [16] = assay: Fungicidal activity against Aspergillus ochraceus ATCC 12066 after 72 hrs by microdilution method; assay type: functional
Salmonella typhimurium [17] = assay: Antibacterial activity against Salmonella typhimurium ATCC 13311 after 24 hrs by microdilution method; assay type: functional, Salmonella enterica subsp. enterica serovar Typhimurium; settings: Salmonella enterica, ATCC 13311, 24 h
Trichoderma viride [18] = assay: Fungicidal activity against Trichoderma viride IAM 5061 after 72 hrs by microdilution method; assay type: functional
Aspergillus fumigatus [19] = assay: Antifungal activity against Aspergillus fumigatus isolated from human after 72 hrs by microdilution method; assay type: functional
Trichoderma viride [20] = assay: Antifungal activity against Trichoderma viride IAM 5061 after 72 hrs by microdilution method; assay type: functional; settings: IAM 5061, 72 h
Listeria monocytogenes [21] = assay: Antibacterial activity against Listeria monocytogenes NCTC 7973 after 24 hrs by microdilution method; assay type: functional; settings: NCTC 7973, 24 h
Aspergillus versicolor [22] = assay: Fungicidal activity against Aspergillus versicolor ATCC 11730 after 72 hrs by microdilution method; assay type: functional
Micrococcus flavus [23] = assay: Antibacterial activity against Micrococcus flavus ATCC 10240 after 24 hrs by microdilution method; assay type: functional; settings: ATCC 10240, 24 h
Talaromyces funiculosus [24] = assay: Fungicidal activity against Penicillium funiculosum ATCC 36839 after 72 hrs by microdilution method; assay type: functional
Staphylococcus aureus [25] = assay: Bactericidal activity against Staphylococcus aureus ATCC 6538 after 72 hrs by microdilution method; assay type: functional
Pseudomonas aeruginosa [26] = assay: Bactericidal activity against Pseudomonas aeruginosa ATCC 27853 after 72 hrs by microdilution method; assay type: functional
Bacillus cereus [27] = assay: Bactericidal activity against Bacillus cereus clinical isolate after 72 hrs by microdilution method; assay type: functional
Salmonella typhimurium [28] = assay: Bactericidal activity against Salmonella typhimurium ATCC 13311 after 72 hrs by microdilution method; assay type: functional, Salmonella enterica subsp. enterica serovar Typhimurium
Bacillus cereus [29] = assay: Antibacterial activity against Bacillus cereus clinical isolate after 24 hrs by microdilution method; assay type: functional
Talaromyces funiculosus [30] = assay: Antifungal activity against Penicillium funiculosum ATCC 36839 after 72 hrs by microdilution method; assay type: functional; settings: ATCC 36839, 72 h
Pseudomonas aeruginosa [31] = assay: Antibacterial activity against Pseudomonas aeruginosa ATCC 27853 after 24 hrs by microdilution method; assay type: functional; settings: ATCC 27853, 24 h
Aspergillus fumigatus [32] = assay: Fungicidal activity against Aspergillus fumigatus isolated from human after 72 hrs by microdilution method; assay type: functional

| SMILES | MBC99.5 (Escherichia coli [1]) [×10⁻² umol/ml] | MIC (Staphylococcus aureus [2]) [µM] | MIC (Aspergillus ochraceus [3]) [µM] | MFC99.5 (Aspergillus flavus [4]) [×10⁻² umol/ml] | MBC99.5 (Listeria monocytogenes [5]) [×10⁻² umol/ml] | MIC (Penicillium ochrochloron [6]) [µM] | MFC99.5 (Penicillium ochrochloron [7]) [×10⁻² umol/ml] | MIC (Aspergillus niger [8]) [µM] | MFC99.5 (Aspergillus niger [9]) [×10⁻² umol/ml] | MBC99.5 (Micrococcus flavus [10]) [×10⁻² umol/ml] | MIC (Enterococcus faecalis [11]) [µM] | MIC (Escherichia coli [12]) [µM] | MBC99.5 (Enterococcus faecalis [13]) [×10⁻² umol/ml] | MIC (Aspergillus flavus [14]) [µM] | MIC (Aspergillus versicolor [15]) [µM] | MFC99.5 (Aspergillus ochraceus [16]) [×10⁻² umol/ml] | MIC (Salmonella typhimurium [17]) [µM] | MFC99.5 (Trichoderma viride [18]) [×10⁻² umol/ml] | MIC (Aspergillus fumigatus [19]) [µM] | MIC (Trichoderma viride [20]) [µM] | other results |
| --- | --- | --- | --- | --- | --- | --- | --- | --- | --- | --- | --- | --- | --- | --- | --- | --- | --- | --- | --- | --- | --- |
| Cc1nc(-c2ccccc2)sc1-c1cc(-c2ccccc2)nc(N)n1 | 40.6 | 14.5 (≈ 4.99 µg/mL) | 14.5 (≈ 4.99 µg/mL) | 29 | 36.25 | 348 (≈ 120 µg/mL) | 40.6 | 58 (≈ 20 µg/mL) | 40.6 | 29 | 290 (≈ 99.9 µg/mL) | 348 (≈ 120 µg/mL) | 34.8 | 58 (≈ 20 µg/mL) | 14.5 (≈ 4.99 µg/mL) | 5.8 | 290 (≈ 99.9 µg/mL) | 29 | 58 (≈ 20 µg/mL) | 14.5 (≈ 4.99 µg/mL) | MIC (Listeria monocytogenes [21]): 14.5 µM (≈ 4.99 µg/mL); MFC99.5 (Aspergillus versicolor [22]): 9 ×10⁻² umol/ml; MIC (Micrococcus flavus [23]): 58 µM (≈ 20 µg/mL); MFC99.5 (Talaromyces funiculosus [24]): 34.8 ×10⁻² umol/ml; MBC99.5 (Staphylococcus aureus [25]): 5.8 ×10⁻² umol/ml; MBC99.5 (Pseudomonas aeruginosa [26]): 40.6 ×10⁻² umol/ml; MBC99.5 (Bacillus cereus [27]): 40.6 ×10⁻² umol/ml; MBC99.5 (Salmonella typhimurium [28]): 34.8 ×10⁻² umol/ml; MIC (Bacillus cereus [29]): 58 µM (≈ 20 µg/mL); MIC (Talaromyces funiculosus [30]): 348 µM (≈ 120 µg/mL); MIC (Pseudomonas aeruginosa [31]): 290 µM (≈ 99.9 µg/mL); MFC99.5 (Aspergillus fumigatus [32]): 34.8 ×10⁻² umol/ml |
| CNc1nc(C)c(C2=NN(c3ccccc3)C(c3ccc(C)cc3)C2)s1 (centres undefined) | 58.6 | 110 (≈ 40 µg/mL) | 96 (≈ 34.8 µg/mL) | 27.6 | 11.04 | 276 (≈ 100 µg/mL) | 44.6 | 442 (≈ 160 µg/mL) | 58.6 | 58.6 | 442 (≈ 160 µg/mL) | 276 (≈ 100 µg/mL) | 58.64 | 110 (≈ 40 µg/mL) | 55.2 (≈ 20 µg/mL) | 11.04 | 110 (≈ 40 µg/mL) | 11.04 | 276 (≈ 100 µg/mL) | 55.2 (≈ 20 µg/mL) | MIC (Listeria monocytogenes [21]): 96 µM (≈ 34.8 µg/mL); MFC99.5 (Aspergillus versicolor [22]): 27.6 ×10⁻² umol/ml; MIC (Micrococcus flavus [23]): 276 µM (≈ 100 µg/mL); MFC99.5 (Talaromyces funiculosus [24]): 44.16 ×10⁻² umol/ml; MBC99.5 (Staphylococcus aureus [25]): 27.6 ×10⁻² umol/ml; MBC99.5 (Pseudomonas aeruginosa [26]): 33.12 ×10⁻² umol/ml; MBC99.5 (Bacillus cereus [27]): 27.6 ×10⁻² umol/ml; MBC99.5 (Salmonella typhimurium [28]): 27.6 ×10⁻² umol/ml; MIC (Bacillus cereus [29]): 55.2 µM (≈ 20 µg/mL); MIC (Talaromyces funiculosus [30]): 276 µM (≈ 100 µg/mL); MIC (Pseudomonas aeruginosa [31]): 276 µM (≈ 100 µg/mL); MFC99.5 (Aspergillus fumigatus [32]): 44.16 ×10⁻² umol/ml |
